Source: ChEMBL document CHEMBL1201862, “PubChem BioAssay data set” (2004)
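Interpolation was linear, between the two tested concentrations surrounding the appropriate level; five concentrations were tested over 48 hours in 96-well plates. GI50: concentration for 50% inhibition of growth.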 Activity calls are given as the source filed them. Rule as the data show it: active = GI50 up to about 1.1 µM and inactive = higher. Residues, ends and D or L forms follow the SMILES beside them. *: point of attachment. Boc = CC(C)(C)OC(=O)*; Bz = O=C(c1ccccc1)*

How the values were obtained:
Assay in all cases: NCI-60 cell line screen, 48 h
A498 = tested on: A498
BT-549 = tested on: BT-549
CAKI-1 = tested on: CAKI-1
HCT-116 = tested on: HCT-116
KM12 = tested on: KM12
M14 = tested on: M14
MCF7 = tested on: MCF7
MDA-MB-435 = tested on: MDA-MB-435
MDA-N = tested on: MDA-N
NCI-H23 = tested on: NCI-H23
NCI-H522 = tested on: NCI-H522
OVCAR-5 = tested on: OVCAR-5
OVCAR-8 = tested on: OVCAR-8
RPMI-8226 = tested on: RPMI-8226
SF-539 = tested on: SF-539
SK-OV-3 = tested on: SK-OV-3
SN12C = tested on: SN12C
SNB-19 = tested on: SNB-19
UACC-62 = tested on: UACC-62

Measured: GI50

NS(=O)(=O)c1cc(Br)c(/N=N\c2ccc(O)c3ncccc23)c(Br)c1
inactive: A498 18.6 µM | BT-549 16.4 µM | CAKI-1 37.9 µM | HCT-116 26.7 µM | KM12 37.8 µM | M14 13.1 µM | MCF7 11.5 µM | MDA-MB-435 29.2 µM | MDA-N 14.6 µM | NCI-H23 17.9 µM | NCI-H522 16.5 µM | OVCAR-5 71.6 µM | OVCAR-8 35.2 µM | RPMI-8226 7.26 µM | SF-539 25.9 µM | SK-OV-3 47.8 µM | SN12C 22.3 µM | SNB-19 19.5 µM | UACC-62 21.8 µM

CC1(c2ccc(Cl)cc2)N=C(NCCO)c2ccccc21 (stereo not drawn)
inactive: A498 18.6 µM | BT-549 42 µM | CAKI-1 > 71 µM | HCT-116 5.37 µM | KM12 15.7 µM | M14 9.84 µM | MCF7 20.7 µM | MDA-MB-435 12.2 µM | MDA-N 10.7 µM | NCI-H23 13.8 µM | NCI-H522 26.4 µM | OVCAR-5 19.2 µM | OVCAR-8 51.8 µM | RPMI-8226 2.74 µM | SF-539 2.25 µM | SK-OV-3 88.7 µM | SN12C 16.9 µM | SNB-19 14.7 µM | UACC-62 12 µM

COc1cc2c(cc1C1COc3cc4occc4cc3C1=O)OCO2 (stereo not drawn)
inactive: A498 31.8 µM | BT-549 > 100 µM | CAKI-1 67 µM | HCT-116 > 100 µM | KM12 > 100 µM | M14 > 100 µM | MCF7 17.4 µM | MDA-MB-435 > 100 µM | MDA-N > 100 µM | NCI-H23 > 100 µM | NCI-H522 > 100 µM | OVCAR-5 > 100 µM | OVCAR-8 21.1 µM | RPMI-8226 2.67 µM | SF-539 35.6 µM | SK-OV-3 34.4 µM | SN12C > 100 µM | SNB-19 30.1 µM | UACC-62 > 100 µM

CC(NC(=O)C(Cc1ccc(OC(=O)c2ccccc2)cc1)NC(=O)OC(C)(C)C)C(=O)NC(Cc1ccccc1)C(=O)NCC(N)=O (stereo not drawn) (Boc-Y(Bz)AFG-NH2; configuration not given here)
inactive: A498 21.6 µM | BT-549 19 µM | CAKI-1 > 100 µM | HCT-116 27.5 µM | KM12 35.8 µM | M14 17.9 µM | MCF7 19.5 µM | MDA-MB-435 21.7 µM | MDA-N 25.8 µM | NCI-H23 23.2 µM | NCI-H522 17.9 µM | OVCAR-5 24.4 µM | OVCAR-8 24.7 µM | RPMI-8226 24 µM | SF-539 24.9 µM | SK-OV-3 19.2 µM | SN12C 21.1 µM | SNB-19 18.6 µM | UACC-62 18.8 µM

O=C(O)CNCP(=O)(O)O [GLYPHOSATE]
inactive: A498 > 100 µM | BT-549 > 100 µM | CAKI-1 > 100 µM | HCT-116 > 100 µM | KM12 > 100 µM | M14 > 100 µM | MCF7 > 100 µM | MDA-MB-435 > 100 µM | MDA-N > 100 µM | NCI-H23 > 100 µM | NCI-H522 > 100 µM | OVCAR-5 > 100 µM | OVCAR-8 > 100 µM | RPMI-8226 > 100 µM | SF-539 > 100 µM | SK-OV-3 > 100 µM | SN12C > 100 µM | SNB-19 > 100 µM | UACC-62 > 100 µM

O=S(=O)(O)c1ccc(Nc2ccnc3ccccc23)cc1
inactive: A498 > 100 µM | BT-549 > 100 µM | CAKI-1 > 100 µM | HCT-116 > 100 µM | KM12 > 100 µM | M14 > 100 µM | MCF7 > 100 µM | MDA-MB-435 > 100 µM | MDA-N > 100 µM | NCI-H23 > 100 µM | NCI-H522 > 100 µM | OVCAR-5 > 100 µM | OVCAR-8 > 100 µM | RPMI-8226 > 100 µM | SF-539 > 100 µM | SK-OV-3 > 100 µM | SN12C > 100 µM | SNB-19 > 100 µM | UACC-62 > 100 µM

ON[C@H]1C[C@@H](n2cnc3c(NC4CC4)ncnc32)[C@H](O)[C@@H]1O
inactive: A498 > 100 µM | BT-549 > 100 µM | CAKI-1 > 100 µM | HCT-116 > 100 µM | KM12 > 100 µM | M14 > 100 µM | MCF7 > 100 µM | MDA-MB-435 > 100 µM | MDA-N > 100 µM | NCI-H23 > 100 µM | NCI-H522 > 100 µM | OVCAR-5 > 100 µM | OVCAR-8 > 100 µM | RPMI-8226 > 100 µM | SF-539 > 100 µM | SK-OV-3 > 100 µM | SN12C > 100 µM | SNB-19 > 100 µM | UACC-62 > 100 µM
